Assay results: the supplement of paper PMC11061612

What was measured:
Experiment in all cases: combination Emax (second highest fraction inhibited in the dose matrix, 72 h); higher = more inhibition; extreme values may be limits of the assay
[1] = system: BICR22 (Oral Cavity Carcinoma)
Summary of the method: (§1)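 After 24 hours at 37°C and 5% CO2 in 1536-well plates, cells in DMEM/F12 or RPMI plus 10% FBS received two-drug dose matrices for 72 hours. Viability came from CellTiter-Glo 2.0 luminescence and was scaled as inhibition, anchored at 0 by vehicle wells and at 1 by blank wells. Combination Emax is taken as the second-highest inhibition in the matrix, and Bliss excess as the observed combination effect less EA + EB − EA·EB, with EA and EB the single-agent effects.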

[2] = system: CAPAN-2 (Pancreatic Carcinoma)
Summary of the method: as §1

CAS-1 (Glioblastoma) = system: CAS-1 (Glioblastoma)
Summary of the method: as §1

[3] = system: COLO-320-HSR (Colorectal Carcinoma)
Summary of the method: as §1

FU97 (Gastric Carcinoma) = system: FU97 (Gastric Carcinoma)
Summary of the method: as §1

GI-ME-N (Neuroblastoma) = system: GI-ME-N (Neuroblastoma)
Summary of the method: as §1

[4] = system: KARPAS-422 (B-Cell Non-Hodgkin's Lymphoma)
Summary of the method: as §1

[5] = system: MDST8 (Colorectal Carcinoma)
Summary of the method: as §1

[6] = system: NCI-H1650 (Lung Adenocarcinoma)
Summary of the method: as §1

[7] = system: NCI-H1693 (Lung Adenocarcinoma)
Summary of the method: as §1

[8] = system: NCI-H2066 (Squamous Cell Lung Carcinoma)
Summary of the method: as §1

[9] = system: NCI-H2141 (Small Cell Lung Carcinoma)
Summary of the method: as §1

NCI-H2591 (Mesothelioma) = system: NCI-H2591 (Mesothelioma)
Summary of the method: as §1

[10] = system: ONS-76 (Other Solid Carcinomas)
Summary of the method: as §1

[11] = system: OS-RC-2 (Kidney Carcinoma)
Summary of the method: as §1

[12] = system: SISO (Cervical Carcinoma)
Summary of the method: as §1

[13] = system: SK-MG-1 (Low Grade Glioma)
Summary of the method: as §1

[14] = system: TT2609-C02 (Thyroid Gland Carcinoma)
Summary of the method: as §1

U-2-OS (Osteosarcoma) = system: U-2-OS (Osteosarcoma)
Summary of the method: as §1

[15] = system: VCaP (Prostate Carcinoma)
Summary of the method: as §1

SMILES | combination Emax [1] | combination Emax [2] | combination Emax (CAS-1 (Glioblastoma)) | combination Emax [3] | combination Emax (FU97 (Gastric Carcinoma)) | combination Emax (GI-ME-N (Neuroblastoma)) | combination Emax [4] | combination Emax [5] | combination Emax [6] | combination Emax [7] | combination Emax [8] | combination Emax [9] | combination Emax (NCI-H2591 (Mesothelioma)) | combination Emax [10] | combination Emax [11] | combination Emax [12] | combination Emax [13] | combination Emax [14] | combination Emax (U-2-OS (Osteosarcoma)) | combination Emax [15]
COc1cccc(OCCCN)c1-c1cc(Nc2cnc(C#N)cn2)n[nH]1 [Prexasertib] + CCc1c2c(nc3ccc(O)cc13)-c1cc3c(c(=O)n1C2)COC(=O)[C@]3(O)CC [SN-38] (first compound max 1 µM, 7x7, partner max 0.3 µM) | 0.936 | 0.495 | 0.834 | 0.838 | 0.423 | 0.529 | 1 | 0.94 | 0.778 | 0.925 | 0.5 | 0.881 | 0.791 | 0.867 | 0.431 | 0.972 | 0.982 | 0.95 | 0.871 | 0.748
COc1cccc(OCCCN)c1-c1cc(Nc2cnc(C#N)cn2)n[nH]1 [Prexasertib] + CN(C)CCCOc1ccc(-c2ccc3ncc4c(c3c2)n(C2CCOCC2)c(=O)n4C)cn1 [AZD0156] (first compound max 1 µM, 7x7, partner max 1 µM) | 0.742 | 0.592 | 0.674 | 0.691 | 0.386 | 0.529 | 0.904 | 0.957 | 0.51 | 0.398 | 0.402 | 0.568 | 0.305 | 0.862 | 0.498 | 0.745 | 0.843 | 0.335 | 0.943 | 0.741
COc1cccc(OCCCN)c1-c1cc(Nc2cnc(C#N)cn2)n[nH]1 [Prexasertib] + C[C@@H]1COCCN1C2=NC(=NC(=C2)C3(CC3)[S@](=N)(=O)C)C4=C5C=CNC5=NC=C4 [AZD6738] (first compound max 1 µM, 7x7, partner max 10 µM) | 0.789 | 0.513 | 0.652 | 0.726 | 0.308 | 0.563 | 0.88 | 0.943 | 0.519 | 0.389 | 0.454 | 0.573 | 0.519 | 0.903 | 0.483 | 0.798 | 0.802 | 0.263 | 0.894 | 0.718
COc1cccc(OCCCN)c1-c1cc(Nc2cnc(C#N)cn2)n[nH]1 [Prexasertib] + Cc1cc2ncnn2cc1Nc1ncc2c(n1)n(C1CCOCC1)c(=O)n2C [AZD7648] (first compound max 1 µM, 7x7, partner max 10 µM) | 0.761 | 0.593 | 0.71 | 0.669 | 0.367 | 0.563 | 0.908 | 0.943 | 0.55 | 0.483 | 0.437 | 0.57 | 0.415 | 0.862 | 0.469 | 0.759 | 0.826 | 0.276 | 0.913 | 0.729
COc1cccc(OCCCN)c1-c1cc(Nc2cnc(C#N)cn2)n[nH]1 [Prexasertib] + O=C(c1cc(Cc2n[nH]c(=O)c3ccccc23)ccc1F)N1CCN(C(=O)C2CC2)CC1 [Olaparib] (first compound max 1 µM, 7x7, partner max 10 µM) | 0.78 | 0.337 | 0.588 | 0.522 | 0.299 | 0.452 | 0.92 | 0.937 | 0.494 | 0.357 | 0.316 | 0.617 | 0.21 | 0.793 | 0.475 | 0.803 | 0.904 | 0.329 | 0.908 | 0.797
COc1cc2c(cc1OCCCCCOc1cc3c(cc1OC)C(=O)N1C=C(C)C[C@H]1C=N3)N=C[C@@H]1CC(C)=CN1C2=O [SG3199] + O=C(c1cc(Cc2n[nH]c(=O)c3ccccc23)ccc1F)N1CCN(C(=O)C2CC2)CC1 [Olaparib] (first compound max 0.001 µM, 7x7, partner max 10 µM) | 0.124 | 0.0949 | 0.235 | 0.061 | 0.156 | 0.161 | 0.258 | 0.138 | 0.0953 | 0.086 | 0.108 | 0.197 | 0.118 | 0.206 | 0.0448 | 0.226 | 0.168 | 0.166 | 0.0914 | 0.0785
CCc1c2c(nc3ccc(O)cc13)-c1cc3c(c(=O)n1C2)COC(=O)[C@]3(O)CC [SN-38] + CN(C)CCCOc1ccc(-c2ccc3ncc4c(c3c2)n(C2CCOCC2)c(=O)n4C)cn1 [AZD0156] (first compound max 0.3 µM, 7x7, partner max 1 µM) | 0.907 | 0.206 | 0.494 | 0.284 | 0.187 | 0.345 | 0.937 | 0.802 | 0.501 | 0.474 | 0.154 | 0.451 | 0.65 | 0.805 | 0.443 | 0.928 | 0.833 | 0.441 | 0.0889 | 0.391
C[C@@H](c1ccc2nccn2c1)n1nnc2ncc(-c3cnn(C)c3)nc21 [Savolitinib] + CC1(C)CCC(CN2CCN(c3ccc(C(=O)NS(=O)(=O)c4ccc(NCC5CCOCC5)c([N+](=O)[O-])c4)c(Oc4cnc5[nH]ccc5c4)c3)CC2)=C(c2ccc(Cl)cc2)C1 [Venetoclax] (first compound max 1 µM, 7x7, partner max 1 µM) | 0.108 | 0.0542 | 0.212 | 0.213 | 0.13 | 0.17 | 0.257 | 0.176 | 0.127 | 0.0814 | 0.195 | 0.198 | 0.15 | 0.118 | 0.145 | 0.0509 | 0.11 | 0.0924 | 0.125 | 0.115
C[C@@H](c1ccc2nccn2c1)n1nnc2ncc(-c3cnn(C)c3)nc21 [Savolitinib] + Cc1c2c(nn1C)CSCc1cc(n(C)n1)CSc1cc(c3ccccc3c1)OCCCc1c(C(=O)O)n(C)c3c-2c(Cl)ccc13 [AZD5991] (first compound max 1 µM, 7x7, partner max 1 µM) | 0.269 | 0.166 | 0.194 | 0.779 | 0.164 | 0.245 | 0.961 | 0.159 | 0.132 | 0.108 | 0.169 | 0.234 | 0.216 | 0.153 | 0.19 | 0.0507 | 0.124 | 0.156 | 0.18 | 0.946
Cn1cnc2c(F)c(Nc3ccc(Br)cc3Cl)c(C(=O)NOCCO)cc21 [Selumetinib] + C=CCn1c(=O)c2cnc(Nc3ccc(N4CCN(C)CC4)cc3)nc2n1-c1cccc(C(C)(C)O)n1 [AZD1775] (first compound max 10 µM, partner max 1 µM) | 0.523 | 0.419 | 0.39 | 0.589 | 0.364 | 0.209 | 0.623 | 0.609 | 0.34 | 0.428 | 0.351 | 0.547 | 0.309 | 0.682 | 0.244 | 0.539 | 0.449 | 0.655 | 0.699 | 0.509
Cn1cnc2c(F)c(Nc3ccc(Br)cc3Cl)c(C(=O)NOCCO)cc21 [Selumetinib] + CC(C)n1c(=O)n(C)c2cnc3cc(F)c(-c4ccc(OCCCN5CCCCC5)nc4)cc3c21 [AZD1390] (first compound max 10 µM, 7x7, partner max 0.3 µM) | 0.334 | 0.378 | 0.241 | 0.181 | 0.273 | 0.178 | 0.123 | 0.537 | 0.132 | 0.204 | 0.254 | 0.0858 | 0.199 | 0.713 | 0.158 | 0.0869 | 0.185 | 0.663 | 0.577 | 0.0626
Cn1cnc2c(F)c(Nc3ccc(Br)cc3Cl)c(C(=O)NOCCO)cc21 [Selumetinib] + CCN(CCO)CCCOc1ccc2c(Nc3cc(CC(=O)Nc4cccc(F)c4)[nH]n3)ncnc2c1 [AZD2811] (first compound max 10 µM, 7x7, partner max 1 µM) | 0.538 | 0.407 | 0.277 | 0.249 | 0.305 | 0.213 | 0.263 | 0.63 | 0.213 | 0.286 | 0.286 | 0.167 | 0.29 | 0.728 | 0.225 | 0.338 | 0.288 | 0.622 | 0.661 | 0.211
Cn1cnc2c(F)c(Nc3ccc(Br)cc3Cl)c(C(=O)NOCCO)cc21 [Selumetinib] + C[C@@H]1COCCN1C2=NC(=NC(=C2)C3(CC3)[S@](=N)(=O)C)C4=C5C=CNC5=NC=C4 [AZD6738] (first compound max 10 µM, 7x7, partner max 10 µM) | 0.722 | 0.428 | 0.545 | 0.371 | 0.333 | 0.312 | 0.519 | 0.784 | 0.333 | 0.364 | 0.43 | 0.409 | 0.339 | 0.771 | 0.304 | 0.43 | 0.387 | 0.506 | 0.624 | 0.303
